These results are taken from US7374875B2, “Peptides having affinity for the gp120 viral protein and use thereof” (priority 2001, dated 2008).

This data set concerns PHA-P-activated PBMCs. The experiment in a line: Toxicity test, viability of PHA-P-activated PBMCs. The class given is cell-based, human. The settings on record: at the doses tested. The procedure:
The PBMCs are separated from the other represented elements of the blood by ficoll (MSL 2000, Eurobio) gradient centrifiguation: 30 ml of blood, from a healthy donor, diluted by a third are deposited onto a 20 ml ficoll cushion. After centrifugation for 20 min at 850 g, the ring of PBMCs is removed and then washed twice with RPMI 1640, after centrifugation at 750 g for 10 min and at 400 g for 5 min. The PBMCs are then activated for 48 h with 1 μg/ml of phytohaemagglutinin-P (PHA-P; Difco Laboratories). The PBMCs are cultured at +37° C., in an atmosphere saturated with humidity, under 5% CO2. At the end of the 48 hours of mitogenic activation, they are cultured in medium B. Throughout the culturing, the culture supernatants are sampled, and the culture media are renewed every three or four days. At each renewal of the culture media, the cell viability is evaluated by microscopic observation.
In all the experiments, the effects of the new molecules were compared to those of AZT. […] CD4 mimetic toxicity tests were also carried out on the same cells.

Take `Cc1cn([C@H]2C[C@H](N=[N+]=[N-])[C@@H](CO)O2)c(=O)[nH]c1=O` [AZT]: the “viability of the PHA-P-activated PBMCs (in words)” value is reported as “none of the compounds, AZT, SAH-CD4 or anti-CD4 mimetics, decreased the viability”.
